Laboratory results: US12122763B2, “Substituted piperidines for androgen receptor degradation” (UBIX THERAPEUTICS, INC., priority 2020, dated 2024)

Target: T1, Androgen Receptor (AR) protein (Homo sapiens, UniProt P10275, T878A)
T1 construct: endogenous in cells; host or cells: LNCaP
Assay: Androgen Receptor (AR) protein degradation assay in LNCaP cells, western blotting
Type: cell-based
Details: 20 h; for inhibition at 0.01 µM: 0.01 μM compound; for inhibition at 0.1 µM: 0.1 μM compound; for inhibition at 1 µM: 1 μM compound; for inhibition at 10 µM: 10 μM compound
How it was run: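 AR protein level was detected by western blot (ECL) against GAPDH or β-actin controls, with 8 μg lysate protein loaded per lane after BCA quantification. Lysates came from LNCaP cells exposed to test compound for 20 h, following 3 days of growth in RPMI/10% FBS.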

T1 sequence (P10275 whole entry T878A): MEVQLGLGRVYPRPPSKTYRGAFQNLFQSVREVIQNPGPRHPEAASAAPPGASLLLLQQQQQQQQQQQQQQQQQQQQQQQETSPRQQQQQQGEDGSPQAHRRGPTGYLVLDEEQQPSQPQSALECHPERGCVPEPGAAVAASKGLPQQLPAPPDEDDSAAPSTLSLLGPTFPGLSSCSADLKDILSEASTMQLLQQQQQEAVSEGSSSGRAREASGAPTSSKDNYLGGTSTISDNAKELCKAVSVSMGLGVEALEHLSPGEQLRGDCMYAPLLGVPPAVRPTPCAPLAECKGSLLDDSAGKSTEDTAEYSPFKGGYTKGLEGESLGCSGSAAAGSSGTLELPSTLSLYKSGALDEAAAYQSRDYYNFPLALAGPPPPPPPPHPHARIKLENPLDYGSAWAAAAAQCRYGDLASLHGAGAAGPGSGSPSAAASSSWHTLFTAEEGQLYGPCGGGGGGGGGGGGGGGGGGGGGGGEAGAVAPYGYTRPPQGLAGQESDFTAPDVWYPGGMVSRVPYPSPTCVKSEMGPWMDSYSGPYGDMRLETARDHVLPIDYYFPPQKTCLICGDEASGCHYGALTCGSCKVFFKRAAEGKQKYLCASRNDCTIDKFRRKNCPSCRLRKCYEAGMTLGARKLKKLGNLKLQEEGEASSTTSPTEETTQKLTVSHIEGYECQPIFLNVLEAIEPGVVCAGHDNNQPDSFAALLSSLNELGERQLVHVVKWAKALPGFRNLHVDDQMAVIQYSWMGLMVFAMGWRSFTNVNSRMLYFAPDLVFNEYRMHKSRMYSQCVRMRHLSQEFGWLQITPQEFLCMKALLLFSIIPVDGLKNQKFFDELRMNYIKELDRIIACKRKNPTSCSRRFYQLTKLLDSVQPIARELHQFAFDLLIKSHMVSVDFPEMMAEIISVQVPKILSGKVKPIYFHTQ
T1 sequence (Q96SW2 whole entry partner): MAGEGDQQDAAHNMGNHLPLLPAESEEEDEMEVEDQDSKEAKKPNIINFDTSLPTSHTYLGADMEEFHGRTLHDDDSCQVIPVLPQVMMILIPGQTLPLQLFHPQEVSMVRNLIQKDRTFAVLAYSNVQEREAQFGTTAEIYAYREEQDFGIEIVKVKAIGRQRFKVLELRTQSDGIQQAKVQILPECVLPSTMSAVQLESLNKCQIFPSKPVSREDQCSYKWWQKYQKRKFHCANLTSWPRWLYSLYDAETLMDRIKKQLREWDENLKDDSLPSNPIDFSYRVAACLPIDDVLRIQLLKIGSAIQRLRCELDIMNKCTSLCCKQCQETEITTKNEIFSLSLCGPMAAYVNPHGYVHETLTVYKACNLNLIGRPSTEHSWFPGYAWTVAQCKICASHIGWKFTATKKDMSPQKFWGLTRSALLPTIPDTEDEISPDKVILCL

| Compound | inhibition at 0.01 µM | inhibition at 0.1 µM | inhibition at 1 µM | inhibition at 10 µM |
| --- | --- | --- | --- | --- |
| N#Cc1ccc(N2CCC(C(=O)Nc3ccc(N4CCC(CN5CC6(CCN(c7ccc8c(c7)C(=O)N(C7CCC(=O)NC7=O)C8=O)CC6)C5)CC4)nc3)CC2)cc1Cl (stereo not drawn) [Example 60, 1-(3-chloro-4-cyanophenyl)-N-(6-(4-((7-(2-(2,6-dioxopiperidin-3-yl)-1,3-dioxoisoindolin-5-yl)-2,7-diazaspiro[3.5]nonan-2-yl)methyl)piperidin-1-yl)pyridin-3-yl)piperidine-4-carboxamide] | 16% | 32% | 32% | 66% |
| N#Cc1ccc(N2CCC(C(=O)Nc3ccc(N4CC[C@@H](CN5CC6(CCN(c7ccc8c(c7)C(=O)N(C7CCC(=O)NC7=O)C8=O)CC6)C5)C4)cn3)CC2)cc1C(F)(F)F (stereo partly drawn) [Example 61, 1-(4-cyano-3-(trifluoromethyl)phenyl)-N-(5-((3S)-3-((7-(2-(2,6-dioxopiperidin-3-yl)-1,3-dioxoisoindolin-5-yl)-2,7-diazaspiro[3.5]nonan-2-yl)methyl)pyrrolidin-1-yl)pyridin-2-yl)piperidine-4-carboxamide] | 57% | 94.5% | 97.5% | 96% |
| N#Cc1ccc(N2CCC(C(=O)Nc3ccc(N4CC[C@H](CN5CC6(CCN(c7ccc8c(c7)C(=O)N(C7CCC(=O)NC7=O)C8=O)CC6)C5)C4)cn3)CC2)cc1C(F)(F)F (stereo partly drawn) [Example 62, 1-(4-cyano-3-(trifluoromethyl)phenyl)-N-(5-((3R)-3-((7-(2-(2,6-dioxopiperidin-3-yl)-1,3-dioxoisoindolin-5-yl)-2,7-diazaspiro[3.5]nonan-2-yl)methyl)pyrrolidin-1-yl)pyridin-2-yl)piperidine-4-carboxamide] | 69% | 95% | 96% | 87.5% |
| N#Cc1ccc(N2CCC(C(=O)Nc3ccc(N4CCC(CN5CCC6(CC5)CN(c5ccc7c(c5)C(=O)N(C5CCC(=O)NC5=O)C7=O)C6)CC4)cn3)CC2)cc1C(F)(F)F (stereo not drawn) [Example 63, 1-(4-cyano-3-(trifluoromethyl)phenyl)-N-(5-(4-((2-(2-(2,6-dioxopiperidin-3-yl)-1,3-dioxoisoindolin-5-yl)-2,7-diazaspiro[3.5]nonan-7-yl)methyl)piperidin-1-yl)pyridin-2-yl)piperidine-4-carboxamide] | 45% | 94% | 98.5% | 94.5% |
| N#Cc1ccc(N2CCC(C(=O)Nc3ccc(N4CCC(CN5CCC6(CC5)CN(c5ccc7c(c5)C(=O)N(C5CCC(=O)NC5=O)C7=O)C6)CC4)cn3)CC2)cc1Cl (stereo not drawn) [Example 64, 1-(3-chloro-4-cyanophenyl)-N-(5-(4-((2-(2-(2,6-dioxopiperidin-3-yl)-1,3-dioxoisoindolin-5-yl)-2,7-diazaspiro[3.5]nonan-7-yl)methyl)piperidin-1-yl)pyridin-2-yl)piperidine-4-carboxamide] | 71.5% | 97% | 98.5% | 98.5% |
| COc1ccc(C(=O)N2CC3(CCN(CC4CCN(c5ccc(NC(=O)C6CCN(c7ccc(C#N)c(C(F)(F)F)c7)CC6)nc5)CC4)CC3)C2)cc1N1CCC(=O)NC1=O [Example 65, 1-(4-cyano-3-(trifluoromethyl)phenyl)-N-(5-(4-((2-(3-(2,4-dioxotetrahydropyrimidin-1(2H)-yl)-4-methoxybenzoyl)-2,7-diazaspiro[3.5]nonan-7-yl)methyl)piperidin-1-yl)pyridin-2-yl)piperidine-4-carboxamide] | 55% | 80% | 82% | 63% |
| N#Cc1ccc(N2CCC(C(=O)Nc3ccc(N4CCC(CN5CC6(C5)CN(c5ccc7c(c5)C(=O)N(C5CCC(=O)NC5=O)C7=O)C6)CC4)cn3)CC2)cc1C(F)(F)F (stereo not drawn) [Example 66, 1-(4-cyano-3-(trifluoromethyl)phenyl)-N-(5-(4-((6-(2-(2,6-dioxopiperidin-3-yl)-1,3-dioxoisoindolin-5-yl)-2,6-diazaspiro[3.3]heptan-2-yl)methyl)piperidin-1-yl)pyridin-2-yl)piperidine-4-carboxamide] | 75.5% | 95.5% | 97% | 94% |
| N#Cc1ccc(N2CCC(C(=O)Nc3ccc(N4CCC(CN5CC6(C5)CN(c5ccc7c(c5)C(=O)N(C5CCC(=O)NC5=O)C7=O)C6)CC4)cn3)CC2)cc1Cl (stereo not drawn) [Example 67, 1-(3-chloro-4-cyanophenyl)-N-(5-(4-((6-(2-(2,6-dioxopiperidin-3-yl)-1,3-dioxoisoindolin-5-yl)-2,6-diazaspiro[3.3]heptan-2-yl)methyl)piperidin-1-yl)pyridin-2-yl)piperidine-4-carboxamide] | 46% | 90% | 88% | 86% |
| N#Cc1ccc(N2CCC(C(=O)Nc3ccc(N4CCC(CN5CCC6(CC5)CCN(c5ccc7c(c5)C(=O)N(C5CCC(=O)NC5=O)C7=O)CC6)CC4)cn3)CC2)cc1C(F)(F)F (stereo not drawn) [Example 68, 1-(4-cyano-3-(trifluoromethyl)phenyl)-N-(5-(4-((9-(2-(2,6-dioxopiperidin-3-yl)-1,3-dioxoisoindolin-5-yl)-3,9-diazaspiro[5.5]undecan-3-yl)methyl)piperidin-1-yl)pyridin-2-yl)piperidine-4-carboxamide] | 66% | 91% | 90% | 85% |
| N#Cc1ccc(N2CCC(C(=O)Nc3ccc(N4CCC(CN5CCC6(CC5)CCN(c5ccc7c(c5)C(=O)N(C5CCC(=O)NC5=O)C7=O)CC6)CC4)cn3)CC2)cc1Cl (stereo not drawn) [Example 69, 1-(3-chloro-4-cyanophenyl)-N-(5-(4-((9-(2-(2,6-dioxopiperidin-3-yl)-1,3-dioxoisoindolin-5-yl)-3,9-diazaspiro[5.5]undecan-3-yl)methyl)piperidin-1-yl)pyridin-2-yl)piperidine-4-carboxamide] | 40% | 83% | 85% | 82% |
| N#Cc1ccc(N2CCC(C(=O)Nc3ccc(N4CCC(CN5CCN(C6CCN(c7ccc8c(c7)C(=O)N(C7CCC(=O)NC7=O)C8=O)CC6)CC5)CC4)cn3)CC2)cc1C(F)(F)F (stereo not drawn) [Example 70, 1-(4-cyano-3-(trifluoromethyl)phenyl)-N-(5-(4-((4-(1-(2-(2,6-dioxopiperidin-3-yl)-1,3-dioxoisoindolin-5-yl)piperidin-4-yl)piperazin-1-yl)methyl)piperidin-1-yl)pyridin-2-yl)piperidine-4-carboxamide] | 85% | 99% | 99% | 97% |
| N#Cc1ccc(N2CCC(C(=O)Nc3ccc(N4CCC(CN5CCN(C6CCN(c7ccc8c(c7)C(=O)N(C7CCC(=O)NC7=O)C8=O)CC6)CC5)CC4)cn3)CC2)cc1Cl (stereo not drawn) [Example 71, 1-(3-chloro-4-cyanophenyl)-N-(5-(4-((4-(1-(2-(2,6-dioxopiperidin-3-yl)-1,3-dioxoisoindolin-5-yl)piperidin-4-yl)piperazin-1-yl)methyl)piperidin-1-yl)pyridin-2-yl)piperidine-4-carboxamide] | 75% | 97% | 98% | 98% |
| N#Cc1ccc(N2CCC(F)(C(=O)Nc3ccc(N4CCC(CN5CCN(C6CCN(c7ccc8c(c7)C(=O)N(C7CCC(=O)NC7=O)C8=O)CC6)CC5)CC4)cn3)CC2)cc1C(F)(F)F (stereo not drawn) [Example 72, 1-(4-cyano-3-(trifluoromethyl)phenyl)-N-(5-(4-((4-(1-(2-(2,6-dioxopiperidin-3-yl)-1,3-dioxoisoindolin-5-yl)piperidin-4-yl)piperazin-1-yl)methyl)piperidin-1-yl)pyridin-2-yl)-4-fluoropiperidine-4-carboxamide] | 59% | 94% | 97% | – |
| N#Cc1ncc(N2CCC(C(=O)Nc3ccc(N4CCC(CN5CCN(C6CCN(c7ccc8c(c7)C(=O)N(C7CCC(=O)NC7=O)C8=O)CC6)CC5)CC4)cn3)CC2)cc1C(F)(F)F (stereo not drawn) [Example 73, 1-(6-cyano-5-(trifluoromethyl)pyridin-3-yl)-N-(5-(4-((4-(1-(2-(2,6-dioxopiperidin-3-yl)-1,3-dioxoisoindolin-5-yl)piperidin-4-yl)piperazin-1-yl)methyl)piperidin-1-yl)pyridin-2-yl)piperidine-4-carboxamide] | 55% | 88% | 92% | – |
| N#Cc1ncc(N2CCC(F)(C(=O)Nc3ccc(N4CCC(CN5CCN(C6CCN(c7ccc8c(c7)C(=O)N(C7CCC(=O)NC7=O)C8=O)CC6)CC5)CC4)cn3)CC2)cc1C(F)(F)F (stereo not drawn) [Example 74, 1-(6-cyano-5-(trifluoromethyl)pyridin-3-yl)-N-(5-(4-((4-(1-(2-(2,6-dioxopiperidin-3-yl)-1,3-dioxoisoindolin-5-yl)piperidin-4-yl)piperazin-1-yl)methyl)piperidin-1-yl)pyridin-2-yl)-4-fluoropiperidine-4-carboxamide] | 20% | 66% | 83% | – |
| N#Cc1ccc(N2CCC(C(=O)Nc3ccc(N4CCC(CN5CCN(C6CCN(c7ccc8c(n7)CN(C7CCC(=O)NC7=O)C8=O)CC6)CC5)CC4)cn3)CC2)cc1C(F)(F)F (stereo not drawn) [Example 75, 1-(4-cyano-3-(trifluoromethyl)phenyl)-N-(5-(4-((4-(1-(6-(2,6-dioxopiperidin-3-yl)-5-oxo-6,7-dihydro-5H-pyrrolo[3,4-b]pyridin-2-yl)piperidin-4-yl)piperazin-1-yl)methyl)piperidin-1-yl)pyridin-2-yl)piperidine-4-carboxamide] | 82% | 97% | 90% | – |
